Test results: patent publication US20250108119A1, “NOVEL STEROID PAYLOADS, STEROID LINKERS, ADCs CONTAINING AND USE THEREOF” (IMMUNEXT, INC., priority 2021, published 2025)
Entries after “also recorded” stand apart in the source; their conditions may differ.

Experiments:
[1] = test system: steroid responsive genes in bone; test: RNAseq of mouse bones after treatment; settings: INX231P 10 mg/Kg i.p. 20h (hVISTA KI); Dex 2 mg/Kg 2h (C57BI/6)
[2] = Payload accumulation in cynomolgus tissues (LC-MS/MS); settings: single i.v.; INX234P 10 mg/kg, dexamethasone 2 mg/kg
[3] = test system: steroid responsive genes in bone (Fkpb5, RANKL, ddit4, Fam107a); test: Steroid responsive gene transcription in bone (RNAseq); type: in vivo, mouse; settings: Dex 2 mg/Kg i.p., 2h
Text: In the figure Fkpb5 is shown on the left, RANKL the middle left, ddit4 the middle right and Fam107a on the extreme right.

[4] = Plasma corticosterone after repeated treatment; type: in vivo, hVISTA KI mice; settings: Dex 2 or 0.2 mg/Kg daily for 4 days; INX201J 10 or 3 mg/Kg (0.2 or 0.06 mg/Kg of payload) on days 1, 3 and 4
Procedure: On day 5, mice were bled and their corticosterone levels assessed by ELISA.
The experiment was performed in female hVISTA KI mice. […] A control group was included that received daily PBS injections. On day 5, mice were bled and their plasma corticosterone levels assessed by ELISA.
The ELISA was conducted following the manufacturer's included protocol using Arbor Assays (cat #K014-H5) Corticosterone 5 pack ELISA Kit.

[5] = test system: transferred naïve CD4 T cells from hVISTA KI mice; test: T cell transfer colitis model; type: in vivo, Rag1-/- mice
Procedure: After >21 days, animals slowly start to lose weight and decreases in circulating naïve T cells are observed. In this model, the ADC targets only the transferred cells while the free GC can act on both transferred and host cells.
In EXPERIMENT 1, mice were treated with INX234P at 10 mg/Kg starting on day 0 and then once a week. […] In EXPERIMENT 1 treatment was initiated on day 0 (prophylactic) and terminated on day 61, whereas in EXPERIMENT 2 treatment was initiated on day 21 (or therapeutic) and remains ongoing at the time of this filing.
In both experiments, all treatments were administered once a week.
For EXPERIMENT 1, INX234P treatment was initiated on day 0 (or prophylactic) after naïve CD4 T cell transfer and terminated on day 61.
Naïve CD4 T cells were isolated from hVISTA KI spleen using an EasySep™ Mouse Naïve CD4+ T cell Isolation kit from StemCell (catalog #19765) following manufacturer instruction.
Following the protocol of Ostanin et al (2008), […] naïve CD45RB+, CD4+ T cells were injected i.p. on day 0
10 ml of antibody cocktail (see table on the right) was directly added to […] of blood. After 30 min incubation at room temperature (RT), 600 ml BD FACS lysis buffer was added to the sample. After 30 min incubation at RT, samples were spun at 550 rcf for 5 min, washed once in PBS, and then resuspended in a fixed volume of PBS. […]

[6] = test system: human PBMC; test: Identification and quantification of released payload in human PBMC (MS); type: in vitro ADME; settings: 4 hrs, same antibody
Procedure: In all the following experiments, human PBMC, isolated from 1 healthy donor per study, were treated with exemplary anti-VISTA glucocorticoid conjugates according to the invention to allow identification and quantification of the released payload.
In the present experiments, after incubating PBMC with glucocorticoid (GC) antibody drug conjugates (ADC) for 4h, cells were harvested and assessed for both FKBP5 transcription induction via quantitative real time PCR (qPCR) as well as assessed via mass spectrometry (MS) for released payload identification and quantification.
Isolated PBMCs were resuspended in RPMI 1640 containing 10% human AB serum, 10 mM Hepes, 1× Penicillin/Streptomycin/L-Glutamine (assay media).
PBMCs from 1 donor were washed 2× in PBS, and then resuspended at 1×10^7/mL in media. […]
Remaining cells for each treatment were dived into aliquots representing 50 million cells per aliquot (for metabolite quantification only one aliquot per condition was generated). […]
Media was removed from each cell pellet with the media then set aside at −80C until it could be assessed for the concentration of effluxed payload. […]
Briefly, pre-chilled 70% ACN (extraction buffer) was added to the PBMC pellets for extraction. […] was injected onto the LCMS (Luna C18 (2) column, Thermo Scientific Q Exactive Hybrid Quadrupole Orbitrap) and resulting masses assessed. […]

[7] = test system: peritoneal resident macrophages (PRM); test: In vivo treatment/ex vivo PRM activation, TNFα and IL-6 in supernatant; design: species or system hVISTA mice; settings: linker/payloads as anti-VISTA conjugates
[8] = biological target: T1, human VISTA on cells (human, UniProt Q9H7M9 33-311); test: flow cytometry, AF488-labelled antibody on CD14+ monocytes of human PBMC, MFI normalised to INX200 at t=0
T1 sequence: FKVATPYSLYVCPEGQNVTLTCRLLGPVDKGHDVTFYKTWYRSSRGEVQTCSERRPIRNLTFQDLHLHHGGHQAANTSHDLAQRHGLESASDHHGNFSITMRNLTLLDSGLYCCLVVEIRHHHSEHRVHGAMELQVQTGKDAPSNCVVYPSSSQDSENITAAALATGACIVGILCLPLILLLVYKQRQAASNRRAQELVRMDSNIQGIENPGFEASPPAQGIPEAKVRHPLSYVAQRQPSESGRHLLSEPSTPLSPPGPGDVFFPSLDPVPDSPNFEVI

[9] = biological target: CD163 on human blood cells (human) (UniProt Q86VB7); test: flow cytometry, AF647-labelled antibody, bead-calibrated; CD14+ monocytes, human whole blood, n=3 donors, mean±SD
Chain of CD163 on human blood cells (human) (Q86VB7 42-1156): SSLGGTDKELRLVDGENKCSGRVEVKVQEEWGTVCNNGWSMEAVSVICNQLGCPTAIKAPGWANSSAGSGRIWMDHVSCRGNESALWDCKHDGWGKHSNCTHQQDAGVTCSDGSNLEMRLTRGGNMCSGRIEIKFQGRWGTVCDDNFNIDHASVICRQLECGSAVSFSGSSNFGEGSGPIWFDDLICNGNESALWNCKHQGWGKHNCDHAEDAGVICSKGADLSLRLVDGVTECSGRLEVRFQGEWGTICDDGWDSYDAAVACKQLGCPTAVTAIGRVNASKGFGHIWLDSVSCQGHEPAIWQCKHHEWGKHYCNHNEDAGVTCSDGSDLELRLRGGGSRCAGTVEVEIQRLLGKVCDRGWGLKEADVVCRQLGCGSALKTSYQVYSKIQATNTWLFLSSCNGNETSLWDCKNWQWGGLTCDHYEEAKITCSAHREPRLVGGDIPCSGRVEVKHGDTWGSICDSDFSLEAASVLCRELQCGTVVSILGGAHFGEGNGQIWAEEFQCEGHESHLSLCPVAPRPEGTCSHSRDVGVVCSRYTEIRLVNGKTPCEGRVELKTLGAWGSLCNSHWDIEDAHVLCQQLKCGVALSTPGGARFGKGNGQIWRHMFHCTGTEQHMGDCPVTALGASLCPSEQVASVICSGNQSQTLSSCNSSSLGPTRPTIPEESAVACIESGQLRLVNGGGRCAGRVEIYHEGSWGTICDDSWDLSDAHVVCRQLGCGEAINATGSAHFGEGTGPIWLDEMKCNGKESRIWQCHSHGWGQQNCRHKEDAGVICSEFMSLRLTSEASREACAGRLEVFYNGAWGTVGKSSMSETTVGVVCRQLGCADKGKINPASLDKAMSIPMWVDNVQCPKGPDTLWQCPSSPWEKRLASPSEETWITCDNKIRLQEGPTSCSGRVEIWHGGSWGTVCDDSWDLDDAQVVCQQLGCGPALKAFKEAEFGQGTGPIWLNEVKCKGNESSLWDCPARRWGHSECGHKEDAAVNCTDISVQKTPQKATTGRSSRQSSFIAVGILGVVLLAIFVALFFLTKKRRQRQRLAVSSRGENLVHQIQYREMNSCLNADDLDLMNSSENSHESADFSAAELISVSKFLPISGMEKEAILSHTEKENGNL

[10] = biological target: CD163 on human blood cells (human) (UniProt Q86VB7); test: flow cytometry, AF647-labelled antibody, bead-calibrated; CD14+ monocytes, human PBMC, n=5 donors, mean±SD
[11] = biological target: T1, human VISTA on cells; test: cell-based or functional assay
[12] = biological target: T2, hIX50 (human VISTA ECD, produced at Aragen Bioscience) (human, UniProt Q9H7M9 33-194, biotinylated in the pH ELISA (sites not given)); test: ELISA at pH 7.5: INX200 coated at 1 ug/mL; biotinylated hIX50 titrated at 0.001-1000 ng/mL; streptavidin-HRP/TMB; OD 450 nm. The value is a concentration of hIX50.
T2 construct: also called hINX50; soluble VISTA
T2 sequence: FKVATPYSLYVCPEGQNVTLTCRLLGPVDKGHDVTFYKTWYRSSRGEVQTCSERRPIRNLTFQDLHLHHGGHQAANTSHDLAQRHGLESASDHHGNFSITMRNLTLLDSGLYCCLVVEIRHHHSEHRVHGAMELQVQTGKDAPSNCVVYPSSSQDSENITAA

[13] = biological target: T2, hIX50 (human VISTA ECD, produced at …); test: ELISA: hIX50 coated at 1 ug/mL; antibody titrated in PBS/Tween/BSA; mouse anti-human kappa-HRP/TMB; OD 450 nm.

With C[C@@H]1C[C@H]2[C@@H]3CCC4=CC(=O)C=C[C@]4(C)[C@@]3(F)[C@@H](O)C[C@]2(C)[C@@]1(O)C(=O)CO [Dex, dexamethasone] the “FKBP5 in bone (RNAseq)” value [1] was “robust FKBP5 induction”, the “accumulated compound in tissues at 24h (ng of compound/g of tissue)” value [2] was “little accumulated free dexamethasone at 24h in any tissue” and the “impact on steroid responsive genes in bone” value [3] was “significantly impacted”. The “basal plasma corticosterone levels on day 5” value [4] was “Dex at 2 mg/Kg dramatically decreased basal corticosterone levels; also recorded: only limited though significant impact at 0.2 mg/Kg”, the “mice that had to be sacrificed” value ([5]; EXPERIMENT 1: high Dex (2 mg/Kg), 2 out of 10) was 20% and the median survival ([5]; EXPERIMENT 1: once a week day 0 to day 61, unconjugated INX234 10 mg/Kg, low Dex 0.2 mg/Kg) was 72.5 days.

In the case of C[C@]12C=CC(=O)C=C1CC[C@@H]1[C@@H]2[C@@H](O)C[C@@]2(C)[C@H]1C[C@H]1O[C@@H](c3ccc(CC45CC(NC(=O)[C@H](CCC(=O)O)NC(=O)CNC(=O)CBr)(C4)C5)cc3)O[C@]12C(=O)CO [INX P, (S)-4-(2-(2-bromoacetamido)acetamido)-5-((3-(4-((6aR,6bS,7S,8aS,8bS,10R,11aR,12aS,12bS)-7-hydroxy-8b-(2-hydroxyacetyl)-6a,8a-dimethyl-4-oxo-2,4,6a,6b,7,8,8a,8b,11a,12,12a,12b-dodecahydro-1H-naphtho[2′,1′:4,5]indeno[1,2-d][1,3]dioxol-10-yl)benzyl)bicycle[1.1.1]pentan-1-yl)amino)-5-oxopentanoic acid], the “released payload relative to INX J / INX231J” value [6] is reported as ~3 × and the “potency in PRM cytokine model when dosed 7 days early (conclusions)” value [7] is reported as “show similar potency when dosed 7 days early”.

Human IgG1si (antibody) gave a nonspecific signal at 0 min relative to INX200 (MFI, percent) [8] of 5.9%.

“CD163 Alexa Fluor 647 clone GHI/61 (BioLegend) (antibody)” gave an antibody binding capacity (ABC) (ABC (molecules per cell)) [9] of 13100 and an antibody binding capacity (ABC) (ABC (molecules per cell)) [10] of 36700.

B1: INX201J (other)
VH: QVQLVQSGAEVKKPGASVKVSCKASGYTFANYLIGWVRQAPGQRLEWMGDIYPGGGFISYNEKFKGRVTITRDTSASTAYMELSSLRSEDTAVYYCARRFDYGGYFFDYWGQGTLVTVSS
VL: DIVMTQSPLSLPVTPGEPASISCRSSQSIVHSNGNIYLEWYLQKPGQSPQLLIYKVSNRFSGVPDRFSGSGSGTDFTLKISRVEAEDVGVYYCFQGSHVPWTFGQGTKLEIK
modifications: linker/payload INX J on the interchain disulfide cysteines; linker/payload INX J (protease sensitive linker, budesonide analog INX J-2) on the interchain disulfide cysteines, DAR 8.0
With B1 the “FKBP5 transcription (qRT-PCR) in isolated human Tregs, 20 nM payload, against conjugated isotype control” value [11] was 2.1 fold.

B2: INX200 (antibody, human IgG1, V domains shown)
VH: QVQLVQSGAEVKKPGASVKVSCKASGYTFANYLIGWVRQAPGQRLEWMGDIYPGGGFISYNEKFKGRVTITRDTSASTAYMELSSLRSEDTAVYYCARRFDYGGYFFDYWGQGTLVTVSS
VL: DIVMTQSPLSLPVTPGEPASISCRSSQSIVHSNGNIYLEWYLQKPGQSPQLLIYKVSNRFSGVPDRFSGSGSGTDFTLKISRVEAEDVGVYYCFQGSHVPWTFGQGTKLEIK
notes: also called humanized anti-human VISTA antibody on a human IgG1/kappa backbone with L234A/L235A silencing mutations
For B2, the “EC50 (read off the curve)” value [12] was ~0.7 ng/mL and the “EC50 (read off the curve)” value [13] was ~8 ng/mL.
